Assay results published in PubChem BioAssay (NCI).
Values joined by “and” are separate entries in the source; they are usually repeats but may differ in a detail not shown here. Equal values may be shown once.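 Each compound was tested at five concentrations against cells in 96-well plates for 48 hours. Abbreviation: GI50, concentration required for 50% inhibition of growth. Definition used: TGI = concentration required for complete inhibition of growth.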

What was measured:
Assay in all cases: DTP human tumour cell line panel, 48 h
RPMI-8226 leukemia = system: RPMI-8226 leukemia
SF-295 CNS = system: SF-295 CNS
SK-OV-3 ovarian = system: SK-OV-3 ovarian
RXF 393 renal = system: RXF 393 renal
MOLT-4 leukemia = system: MOLT-4 leukemia
IGROV1 ovarian = system: IGROV1 ovarian
SNB-75 CNS = system: SNB-75 CNS
NCI-H522 lung = system: NCI-H522 lung
A498 renal = system: A498 renal
SR leukemia = system: SR leukemia

SMILES | TGI (RPMI-8226 leukemia) [µM] | TGI (SF-295 CNS) [µM] | TGI (SK-OV-3 ovarian) | TGI (RXF 393 renal) | TGI (MOLT-4 leukemia) | TGI (IGROV1 ovarian) | TGI (SNB-75 CNS) [µM] | TGI (NCI-H522 lung) | TGI (A498 renal) [µM] | TGI (SR leukemia) [µM] | GI50 (RPMI-8226 leukemia) | GI50 (SF-295 CNS) [µM] | GI50 (SK-OV-3 ovarian) | GI50 (RXF 393 renal) | GI50 (IGROV1 ovarian) | GI50 (SNB-75 CNS) | GI50 (A498 renal) [µM] | GI50 (MOLT-4 leukemia) [µM] | GI50 (NCI-H522 lung) | GI50 (SR leukemia) [µM]
Cc1ccc(C2CC(c3ccc([N+](=O)[O-])cc3)=Nc3ccccc3S2)cc1 (configuration not stated) | 44.9 | > 100 | > 100 µM | 38.9 µM | 69 µM | 87.5 µM | 82 | 73.3 µM | 77.1 | – | – | – | – | – | – | – | – | – | – | –
C=CCC1C(=O)C(C(=O)OC)N2CCc3c([nH]c4ccccc34)C12 (configuration not stated) | > 100 | > 100 | > 100 µM | > 100 µM | > 100 µM | > 100 µM | – | > 100 µM | > 100 | > 100 | – | – | – | – | – | – | – | – | – | –
CCCCN(CCCC)c1ccc(C(=N)c2ccc(N(C)C)cc2)cc1 | 0.737 | 1.34 | 2.66 µM | 2.61 µM | – | 2.44 µM | 2.42 | – | 1.8 | – | 0.224 µM | 0.349 | 1.36 µM | 1.25 µM | 0.906 µM | 1.14 µM | 0.178 | – | – | –
CCCN(CCCN)/[N+]([O-])=N\O | > 100 | > 100 | > 100 µM | > 100 µM | > 100 µM | > 100 µM | > 100 | > 100 µM | – | > 100 | – | – | – | – | – | – | – | – | – | –
COC(=O)C1CC(=O)CCC1c1ccccc1 (configuration not stated) | > 100 | > 100 | > 100 µM | – | > 100 µM | > 100 µM | > 100 | > 100 µM | > 100 | > 100 | – | – | – | – | – | – | – | – | – | –
CC(=O)Nc1ccc(-c2c3nc(c(-c4cc5ccccc5[n+](C)c4)c4ccc([nH]4)c(-c4ccc(NC(C)=O)cc4)c4nc(c(-c5cc6ccccc6[n+](C)c5)c5ccc2[nH]5)C=C4)C=C3)cc1 | > 50 | 22.5 | 35.6 µM | 14.5 µM | > 50 µM | > 50 µM | 11.7 | > 50 µM | 36.2 | – | 21.6 µM | 6.65 | 11.1 µM | 2.05 µM | 13.7 µM | 2.17 µM | 5.16 | > 50 | 14.6 µM | –
COc1cc([N+](=O)[O-])c(S(=O)(=O)O)cc1NS(=O)(=O)c1ccc(C)cc1 | > 100 | > 100 | > 100 µM | – | > 100 µM | > 100 µM | > 100 | > 100 µM | > 100 | > 100 | – | – | – | – | – | – | – | – | – | –
CCC1=C(C)/C(=C/c2[nH]c(C(Br)Br)c(CC)c2C)N=C1C(Br)Br | 39.9 | 98.2 | > 100 µM | 78.9 µM | 27.4 µM | > 100 µM | 90.8 | 38.1 µM | – | 32.6 | – | – | – | – | – | – | – | – | – | –
CC1=CC[C@@H]2C(C)(C)C(=O)CC[C@@]2(C)[C@@H]1COc1ccc2ccc(=O)oc2c1 | – | 44.3 | > 100 µM | > 100 µM | 17.9 µM | 55.1 µM | – | 50.9 µM | > 100 | 68.5 | – | 15.5 | 31.9 µM | 62 µM | 16.2 µM | – | 6.56 | 3.79 | 8.97 µM | 13.2
Cc1nc2ccccc2c(=O)n1/N=C(\N=Nc1cc(Cl)ccc1Cl)c1cccc(-c2ccco2)c1 | > 100 | > 100 | > 100 µM | > 100 µM | > 100 µM | > 100 µM | > 100 | – | > 100 | – | – | – | – | – | – | – | – | – | – | –
CNC(=S)N/N=C1\CC(c2ccccc2)Oc2ccccc21 (configuration not stated) | – | > 100 | > 100 µM | > 100 µM | > 100 µM | > 100 µM | > 100 | > 100 µM | – | > 100 | – | – | – | – | – | – | – | – | – | –
O=C(Cn1c(=O)c(-c2ccccc2)nc2ccccc21)c1ccc(Cl)cc1 | > 100 | > 100 | > 100 µM | – | > 100 µM | > 100 µM | – | > 100 µM | – | > 100 | 57.8 µM | 35.7 | 46.4 µM | – | 63.3 µM | – | – | > 100 | > 100 µM | 37.1
C[C@@H](C1CCC2C3C(=CC(=O)[C@@]21C)[C@H](C)[C@]1(CCC(=O)O1)C1OC31)[C@H]1C[C@]2(C)O[C@@](C)(O1)OC2(C)C (some centres not stated) | > 100 | > 100 | > 100 µM | > 100 µM | > 100 µM | > 100 µM | – | > 100 µM | > 100 | – | – | – | – | – | – | – | – | – | – | –
CCOC(=O)C1=C(C)NC2SC(=O)/C(=C\c3ccccc3Cl)N2C1c1ccccc1 (configuration not stated) | > 100 | > 100 | > 100 µM | > 100 µM | – | > 100 µM | > 100 | > 100 µM | > 100 | – | 79.7 µM | > 100 | > 100 µM | > 100 µM | > 100 µM | > 100 µM | > 100 | – | > 100 µM | –
N=CCCN(CCC=N)c1ccc(/C=C2\CN(NC(=O)c3ccc(Cl)cc3)C(c3ccccc3)=N2)cc1 | 53.6 | > 100 | > 100 µM | – | > 100 µM | > 100 µM | > 100 | – | > 100 | – | – | – | – | – | – | – | – | – | – | –
C/C=C(\C)c1cc(=O)c2c(C)cc3c(c2o1)C(=O)c1c(O)c(C2CC(C)(N(C)C)C(O)C(C)O2)cc(C2CC(N(C)C)C(O)C(C)O2)c1C3=O (configuration not stated) | – | – | – | – | 15.6 µM | 3.2 µM and > 27.6 µM | – | – | 0.453 | 12 | – | – | – | 0.156 µM and 1.39 µM | – | – | – | 0.687 | – | –
O=C(CC(=O)c1ccc([N+](=O)[O-])cc1)C(=O)Nc1nccs1 | > 100 | – | > 100 µM | > 100 µM | > 100 µM | > 100 µM | > 100 | > 100 µM | – | > 100 | – | – | – | – | – | – | – | – | – | –
CC1(C)C(c2ccccc2)C12CCC1(C2=O)C(c2ccccc2)C1(C)C (configuration not stated) | 33.3 | 47.2 | – | 45.7 µM | 37.2 µM | > 100 µM | 90.1 | 30.5 µM | 90.7 | – | – | – | – | – | – | – | – | – | – | –
NC(C/[N+]([O-])=N/O)C(=O)O (configuration not stated) | > 500 | > 500 | > 100 µM and 300 µM | > 100 µM and 381 µM | > 100 µM and 315 µM | > 24.7 µM and > 100 µM and 256 µM | > 500 | > 59.6 µM and 284 µM | – | > 228 | > 43.8 µM and 46.5 µM and 18 µM | 6.24 | 58 µM and > 100 µM and 55.7 µM | 93.2 µM and > 100 µM and 29 µM | 0.107 µM and 0.967 µM and 0.348 µM | 13.4 µM and 10.2 µM and 101 µM | – | 23.3 | 8.03 µM and 33.6 µM | –
